Experimental data published in US20210323913A1, “SIGMA RECEPTOR BINDERS” (BOARD OF REGENTS, THE UNIVERSITY OF TEXAS SYSTEM, priority 2016, published 2021).
Read-outs that look alike come from different tables or passages of the source.

Assays:
sigma 1 receptor = sigma 1 receptor (Homo sapiens, UniProt Q99720); assay: Sigma 1 receptor radioligand competition binding; conditions: Table 1, 7-piperazinyl-tetrahydronaphthalene analogs; read-out: Ki (nM) Sig1R
D3 = D3 (Homo sapiens, UniProt P35462); assay: Radioligand competition binding, D3; conditions: Table 5; Cheng-Prusoff from best fit IC50; one value marked (AVE)
sigma 2 receptor = sigma 2 receptor (Homo sapiens, UniProt Q5BJF2); assay: Sigma 2 receptor radioligand competition binding
5-HT2B = 5-HT2B (Homo sapiens, UniProt P41595); assay: Radioligand competition binding, 5-HT2B; conditions: Table 5; Cheng-Prusoff from best fit IC50
5-HT2A = 5-HT2A (Homo sapiens, UniProt P28223); assay: Radioligand competition binding, 5-HT2A; conditions: Table 5; Cheng-Prusoff from best fit IC50
5-HT2C = target: T1, 5-HT2C (Homo sapiens, UniProt P28335); assay: Radioligand competition binding, 5-HT2C; conditions: Table 5; Cheng-Prusoff from best fit IC50
T1 sequence (P28335 33-458): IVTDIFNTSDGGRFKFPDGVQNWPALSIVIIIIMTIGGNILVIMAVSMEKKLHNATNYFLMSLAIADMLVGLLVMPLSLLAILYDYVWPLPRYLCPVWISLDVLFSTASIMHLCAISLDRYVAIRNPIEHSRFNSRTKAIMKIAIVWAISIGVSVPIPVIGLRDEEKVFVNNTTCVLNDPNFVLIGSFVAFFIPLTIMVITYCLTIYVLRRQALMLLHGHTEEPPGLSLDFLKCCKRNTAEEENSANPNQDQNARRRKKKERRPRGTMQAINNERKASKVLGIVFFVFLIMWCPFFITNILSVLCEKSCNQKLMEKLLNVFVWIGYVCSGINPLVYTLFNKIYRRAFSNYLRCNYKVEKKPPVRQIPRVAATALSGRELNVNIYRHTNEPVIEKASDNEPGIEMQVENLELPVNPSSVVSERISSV

D4 = target: T2, D4 (Homo sapiens, UniProt P21917); assay: Radioligand competition binding, D4; conditions: Table 5; Cheng-Prusoff from best fit IC50
T2 sequence (P21917 1-419): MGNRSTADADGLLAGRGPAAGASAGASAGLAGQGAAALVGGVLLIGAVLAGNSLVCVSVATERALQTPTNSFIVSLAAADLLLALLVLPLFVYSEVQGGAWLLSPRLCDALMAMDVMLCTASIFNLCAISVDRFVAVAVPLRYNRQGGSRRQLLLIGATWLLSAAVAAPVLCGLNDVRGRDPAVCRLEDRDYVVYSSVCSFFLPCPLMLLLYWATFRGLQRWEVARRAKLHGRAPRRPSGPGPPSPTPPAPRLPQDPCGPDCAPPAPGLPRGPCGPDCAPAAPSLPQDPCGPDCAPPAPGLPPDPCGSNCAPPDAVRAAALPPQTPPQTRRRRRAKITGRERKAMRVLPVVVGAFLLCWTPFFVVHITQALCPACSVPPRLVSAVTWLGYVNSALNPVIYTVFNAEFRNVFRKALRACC

D1 = D1 (Homo sapiens, UniProt P21728); assay: Radioligand competition binding, D1; conditions: Table 5; Cheng-Prusoff from best fit IC50; some values marked (AVE)
5-HT6 = 5-HT6 (Homo sapiens, UniProt P50406); assay: Radioligand competition binding, 5-HT6; conditions: Table 5; Cheng-Prusoff from best fit IC50
5-HT1B = 5-HT1B (Homo sapiens, UniProt P28222); assay: Radioligand competition binding, 5-HT1B; conditions: Table 5; Cheng-Prusoff from best fit IC50
5-ht5a = 5-ht5a (Homo sapiens, UniProt P47898); assay: Radioligand competition binding, 5-ht5a; conditions: Table 5; Cheng-Prusoff from best fit IC50
PBR = PBR (UniProt P16257); assay: Radioligand competition binding, PBR; conditions: Table 5; Cheng-Prusoff from best fit IC50; one value marked (AVE)
5-HT1A = target: T3, 5-HT1A (Homo sapiens, UniProt P08908); assay: Radioligand competition binding, 5-HT1A; conditions: Table 5; Cheng-Prusoff from best fit IC50
T3 sequence (P08908 1-422): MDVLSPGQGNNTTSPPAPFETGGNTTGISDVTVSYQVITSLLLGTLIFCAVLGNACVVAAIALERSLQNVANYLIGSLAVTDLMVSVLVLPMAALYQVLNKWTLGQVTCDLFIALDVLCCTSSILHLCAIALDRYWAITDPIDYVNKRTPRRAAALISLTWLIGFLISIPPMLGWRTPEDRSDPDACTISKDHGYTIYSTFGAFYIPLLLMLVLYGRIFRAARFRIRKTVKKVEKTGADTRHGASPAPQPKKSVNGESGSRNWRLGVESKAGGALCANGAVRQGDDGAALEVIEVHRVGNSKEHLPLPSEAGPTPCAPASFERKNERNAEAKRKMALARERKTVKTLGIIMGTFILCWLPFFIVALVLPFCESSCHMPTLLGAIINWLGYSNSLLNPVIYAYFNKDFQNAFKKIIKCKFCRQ

KOR = KOR (Homo sapiens, UniProt P41145); assay: Radioligand competition binding, KOR; conditions: Table 5; Cheng-Prusoff from best fit IC50; some values marked (AVE)
5-HT7 = 5-HT7 (Homo sapiens, UniProt P34969); assay: Radioligand competition binding, 5-HT7; conditions: Table 5; Cheng-Prusoff from best fit IC50
H2 = H2 (Homo sapiens, UniProt P25021); assay: Radioligand competition binding, H2; conditions: Table 5; Cheng-Prusoff from best fit IC50
SERT = SERT (Homo sapiens, UniProt P31645); assay: Radioligand competition binding, SERT; conditions: Table 5; Cheng-Prusoff from best fit IC50
M4 = M4 (Homo sapiens, UniProt P08173); assay: Radioligand competition binding, M4; conditions: Table 5; Cheng-Prusoff from best fit IC50; one value marked (AVE)
5-HT1D = 5-HT1D (Homo sapiens, UniProt P28221); assay: Radioligand competition binding, 5-HT1D; conditions: Table 5; Cheng-Prusoff from best fit IC50

## CCN(CC)C(=O)CCN1CCN(c2ccc3c(c2)C(N(C)C(=O)OCc2ccccc2)CCC3)CC1 (stereo not drawn) [MDW-1-213, Benzyl (7-(4-(3-(diethylamino)-3-oxopropyl)piperazin-1-yl)-1,2,3,4-tetrahydronaphthalen-1-yl)(methyl)carbamate]
Sigma 1 receptor
  Ki: 2100 nM
D3
  Ki: 852 nM
Sigma 2 receptor; Table 1, 7-piperazinyl-tetrahydronaphthalene analogs, read-out: Ki (nM) Sig2R
  Ki: 7 nM
Sigma 2 receptor; Table 1, ratio of Sig1R Ki to Sig2R Ki
  Ki ratio Sig1R/Sig2R: 292
Sigma 2 receptor; Table 5, Cheng-Prusoff from best fit IC50, read-out: Ki Sigma 2
  Ki: 7.2 nM
5-HT2B
  Ki: 692 nM
5-HT2A
  Ki: 957 nM
5-HT2C
  Ki: 2630 nM
D4
  Ki: 319 nM
D1
  Ki: 4050 nM
5-HT6
  Ki: 932 nM
5-HT1B
  Ki: 317 nM
5-ht5a
  Ki: 1880 nM
PBR
  Ki: 1200 nM
5-HT1A
  Ki: 335 nM
KOR
  Ki: 5350 nM
5-HT7
  Ki: 828 nM
H2
  Ki: 333 nM
SERT
  Ki: > 10000 nM
M4
  Ki: 3280 nM
5-HT1D
  Ki: 1360 nM
